# According to US10144715B2, “Piperazine derivatives as liver X receptor modulators” (priority 2014, dated 2018):
# Where two headings read alike, the source gives them in different places.
# Tests used:
# [1] = target: T1, LXR α LBD protein (Homo sapiens (Human), UniProt Q13133); assay: LXR α radioligand binding assay (SPA, competition with [3H]TO901317); settings: read-out: LXRα Binding Ki
# [2] = target: T2, LXR β LBD protein (Homo sapiens (Human), UniProt P55055); assay: biochemical; type: binding; settings: read-out: LXRβ Binding Ki
# Target sequence in this assay (P55055 222-460 limits assumed): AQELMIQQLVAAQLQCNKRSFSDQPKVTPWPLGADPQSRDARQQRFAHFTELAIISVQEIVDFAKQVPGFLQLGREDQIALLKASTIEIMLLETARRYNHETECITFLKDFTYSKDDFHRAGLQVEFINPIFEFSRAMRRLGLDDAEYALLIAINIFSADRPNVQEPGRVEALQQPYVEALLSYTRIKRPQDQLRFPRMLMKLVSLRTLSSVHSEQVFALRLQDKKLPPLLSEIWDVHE
# [3] = target: T3, Gal4 DNA binding domain fused to the LBD of LXRα in HEK293 cells (Homo sapiens (Human), UniProt Q13133); assay: LXR luciferase transcriptional reporter gene assay, agonist mode, LXRα; type: cell-based
# [4] = target: Gal4 DNA binding domain fused to the LBD of LXRβ in HEK293 cells (Homo sapiens (Human), UniProt P55055); assay: cell-based
# [5] = target: T1, LXR α LBD protein; assay: Human LXRα coactivator recruitment FRET assay, agonist mode; type: biochemical
# How it was run: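 LXRα- or LXRβ-LBD at 10 nM (2×) mixed with compound in DMSO, then fluorescein-SRC2-3 peptide 200 nM and Tb-anti-GST antibody 20 nM (4×) added; 2 h at rt. Time-resolved FRET read, 100 µs delay, 200 µs window; EC50 from four-parameter fit of percent control.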
# [6] = target: T2, LXR β LBD protein; assay: biochemical; type: biochemical; settings: for EC50: read-out: FRET LXRβ EC50
# Procedure: Two μL of the DMSO solutions were transferred to the plate and 38 μL of 10 nM LXRα-LBD or LXRβ-LBD (2×) were added immediately to the wells. The plate was shaken for 5 min at rt on an orbital micro shaker (DPC MicroMix® 5), after which 40 μL of 200 nM fluorescein-SRC2-3 peptide and 20 nM Terbium-anti-GST-antibody (Cat# PV3550, Life Technologies, Grand Island, N.Y.) solution (4×) were added to all. The plate was sealed and shaken for 2 min at rt, and incubated at rt for 2 h without agitation. […] The delay and window times were set at 100 and 200 microseconds, respectively. […] The percent control vs. compound concentration data were fit into a four-parameter model, and EC50 values were calculated from the fit as the concentrations corresponding to the inflection points on the concentration-response curves.
# Target sequence in this assay (P55055 222-460): as the sequence (P55055 222-460 limits assumed) above
# [7] = target: T3, Gal4 DNA binding domain fused to the LBD of LXRα in HEK293 cells; assay: LXR luciferase transcriptional reporter gene assay, antagonist mode (200 nM T0901317), LXRα; type: cell-based; settings: for IC50: read-out: Cell LXRα IC50
# [8] = agonist mode, read-out: Cell LXRα EC50
# [9] = antagonist mode, 200 nM T0901317, HEK293 reporter gene assay
# [10] = Biological Test Example 2, agonist mode, read-out: Cell LXRα EC50
# [11] = Biological Test Example 3, agonist mode
# [12] = Biological Test Example 2, agonist mode
# [13] = Biological Test Example 2, agonist mode, read-out: Cell LXRβ EC50
# T3 sequence (Q13133 209-447): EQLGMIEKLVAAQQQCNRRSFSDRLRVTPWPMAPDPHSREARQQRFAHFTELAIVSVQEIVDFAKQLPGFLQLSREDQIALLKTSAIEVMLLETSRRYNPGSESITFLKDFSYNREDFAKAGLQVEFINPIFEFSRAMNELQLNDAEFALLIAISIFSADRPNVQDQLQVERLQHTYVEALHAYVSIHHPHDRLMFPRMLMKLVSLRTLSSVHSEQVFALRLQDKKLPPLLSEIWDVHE
# T1 sequence (Q13133 209-447): as above
# Gal4 DNA binding domain fused to the LBD of LXRβ in HEK293 cells, sequence (P55055 222-460 limits assumed): as the sequence (P55055 222-460 limits assumed) above
smiles,measurement,setting,value
"CS(=O)(=O)c1cccc(N2CCN(Cc3ccc(C(F)(F)F)nc3)[C@@H](c3ccccc3Cl)C2)c1 (single isomer, unassigned) [46-57]",Ki,[1],188 nM
same,Ki,[2],61 nM
same,Cell LXRα efficacy,[3],1244 (42) %
same,EC50,[3]; read-out: Cell LXRα EC50,1240 nM
same,Cell LXRβ efficacy,[4],383 (38) %
same,EC50,[4],383 nM
same,EC50,[5]; agonist mode,499 nM
same,FRET LXRα efficacy,[5]; agonist mode,41%
same,FRET LXRβ efficacy,[6],55 (56) %
same,EC50,[6],55 nM
"CS(=O)(=O)c1cccc(N2CCN(C[C@@H]3CCC[C@@H](C(F)(F)F)C3)[C@@H](c3ccc(F)cc3)C2)c1 (single isomer, unassigned) [48-39]",EC50,[3]; [8],> 20000 nM
same,Cell LXRα efficacy,[7],78 (86) %
same,IC50,[7]; [9],78 nM
"CS(=O)(=O)c1cccc(N2CCN(C[C@@H]3CCC[C@H](C(F)(F)F)C3)[C@@H](c3ccc(F)cc3)C2)c1 (single isomer, unassigned) [48-41]",Ki,[1],196 nM
same,Cell LXRα efficacy,[3],1459 (7) %
same,EC50,[3]; [8],1460 nM
same,Cell LXRα efficacy,[7],421 (83) %
same,IC50,[7]; [9],421 nM
"CS(=O)(=O)c1cccc(N2CCN(CC3CCN(CC(F)(F)F)CC3)[C@@H](c3ccccc3)C2)c1 (single isomer, unassigned) [48-52]",Cell LXRα efficacy,[3],736 (30) %
same,EC50,[3]; [10],736 nM
same,Cell LXRα efficacy,[7],4773 (89) %
same,IC50,[7]; [9],4770 nM
same,EC50,[5]; [11],1060 nM
same,FRET LXRα efficacy,[5]; [11],32%
"CS(=O)(=O)c1cccc(N2CCN(C[C@H]3CCN(CC(F)(F)F)C3)[C@@H](c3ccccc3)C2)c1 (single isomer, unassigned) [48-63]",Ki,[1],> 3330 nM
same,Ki,[2]; Biological Test Example 1,> 2500 nM
same,EC50,[3]; [10],> 20000 nM
same,EC50,[4],> 20000 nM
same,EC50,[5]; [11],11700 nM
same,FRET LXRα efficacy,[5]; [11],14%
same,FRET LXRβ efficacy,[6]; [11],1553 (30) %
same,EC50,[6],1550 nM
"CS(=O)(=O)c1cccc(N2CCN(C[C@H]3CC[C@@]4(CC3)CC4(F)F)[C@@H](c3ccccc3)C2)c1 (single isomer, unassigned) [48-69]",Ki,[1],111 nM
same,Ki,[2]; Biological Test Example 1,14 nM
same,Cell LXRα efficacy,[3],425 (69) %
same,EC50,[3]; read-out: Cell LXRα EC50,425 nM
same,Cell LXRβ efficacy,[4]; [12],43%
same,EC50,[4]; [13],151 nM
same,IC50,[7],> 10000 nM
"CS(=O)(=O)c1cc(N2CCN(C[C@H]3CC[C@H](C(F)(F)F)CC3)[C@@H](c3ccccc3)C2)ccc1C#N (single isomer, unassigned) [50-4]",Ki,[1],2720 nM
same,Ki,[2]; Biological Test Example 1,516 nM
same,Cell LXRα efficacy,[3],3065 (19) %
same,EC50,[3]; read-out: Cell LXRα EC50,3060 nM
same,Cell LXRβ efficacy,[4]; [12],23%
same,EC50,[4]; [13],1280 nM
same,EC50,[5]; [11],9560 nM
same,FRET LXRα efficacy,[5]; [11],69%
same,FRET LXRβ efficacy,[6]; [11],82%
same,EC50,[6]; [11],1630 nM
"CC(C)C[C@@H]1CN(c2cccc(S(C)(=O)=O)c2)CCN1C(=O)OC(C)(C)C [1-3, tert-butyl (R)-2-isobutyl-4-(3-(methylsulfonyl)phenyl)piperazine-1-carboxylate]",Cell LXRα efficacy,[3],955 (34) %
same,EC50,[3]; [8],955 nM
same,IC50,[7]; [9],2870 nM
same,EC50,[5]; agonist mode,1680 nM
same,FRET LXRα efficacy,[5]; agonist mode,43%
"CC(C)[C@@H]1CN(c2ccc(C#N)c(S(C)(=O)=O)c2)CCN1c1nccc(C(F)(F)F)n1 [7-17, (R)-4-(3-isopropyl-4-(4-(trifluoromethyl)pyrimidin-2-yl)piperazin-1-yl)-2-(methylsulfonyl)benzonitrile]",Cell LXRα efficacy,[3],1115 (69) %
same,EC50,[3]; [8],1110 nM
same,IC50,[7]; [9],6030 nM
"CS(=O)(=O)c1cccc(N2CCN(c3nccc(C(F)(F)F)n3)[C@H](c3ccc(F)cc3)C2)c1 [8-1, (R)-2-(2-(4-fluorophenyl)-4-(3-(methylsulfonyl)phenyl)piperazin-1-yl)-4-(trifluoromethyl)pyrimidine]",Ki,[1],454 nM
same,Ki,[2],36 nM
same,Cell LXRα efficacy,[3],2160 (16) %
same,EC50,[3]; [8],2160 nM
same,EC50,[4],493 nM
same,Cell LXRβ efficacy,[4]; agonist mode,493 (31) %
same,EC50,[5]; agonist mode,665 nM
same,FRET LXRα efficacy,[5]; agonist mode,41%
same,FRET LXRβ efficacy,[6]; agonist mode,62 (75) %
same,EC50,[6],62 nM
"CC(C)(O)c1ccc(CN2CCN(c3cccc(S(C)(=O)=O)c3)C[C@@H]2c2ccccc2)cc1 [10-12, (S)-2-(4-((4-(3-(methylsulfonyl)phenyl)-2-phenylpiperazin-1-yl)methyl)phenyl)propan-2-ol]",Ki,[1],> 3330 nM
same,Ki,[2],> 2500 nM
same,EC50,[3]; read-out: Cell LXRα EC50,> 20000 nM
same,EC50,[4],> 20000 nM
same,EC50,[5]; agonist mode,1370 nM
same,FRET LXRα efficacy,[5]; agonist mode,18%
same,FRET LXRβ efficacy,[6]; agonist mode,1141 (33) %
same,EC50,[6],1140 nM
"COCCN(C)Cc1cnc(N2CCN(c3ccc(F)c(S(C)(=O)=O)c3)C[C@H]2C(C)C)nc1C(F)(F)F [15-10, (R)-N-((2-(4-(4-fluoro-3-(methylsulfonyl)phenyl)-2-isopropylpiperazin-1-yl)-4-(trifluoromethyl)pyrimidin-5-yl)methyl)-2-methoxy-N-methylethan-1-amine]",Ki,[1],948 nM
same,Cell LXRα efficacy,[3],5353 (16) %
same,EC50,[3]; [8],5350 nM
same,IC50,[7]; [9],1620 nM
"CC(C)c1ccc(CN2CCN(c3cccc(S(C)(=O)=O)c3)C[C@H]2c2ccccc2)cc1 [46-7, (R)-1-(4-isopropylbenzyl)-4-(3-(methylsulfonyl)phenyl)-2-phenylpiperazine]",Ki,[1],> 3330 nM
same,Ki,[2],> 2500 nM
same,EC50,[3]; read-out: Cell LXRα EC50,> 20000 nM
same,EC50,[4],> 20000 nM
same,EC50,[5]; agonist mode,> 50000 nM
same,EC50,[6],> 50000 nM
"CS(=O)(=O)c1cccc(N2CCN(Cc3ccc(OC(F)F)cc3)[C@@H](c3ccccc3)C2)c1 [46-11, (S)-1-(4-(difluoromethoxy)benzyl)-4-(3-(methylsulfonyl)phenyl)-2-phenylpiperazine]",Ki,[1],3290 nM
same,Ki,[2],445 nM
same,Cell LXRα efficacy,[3],3753 (7) %
same,EC50,[3],3750 nM
same,EC50,[4],> 20000 nM
same,FRET LXRα efficacy,[5],17300 (33) %
same,EC50,[5]; agonist mode,17300 nM
same,FRET LXRβ efficacy,[6],600 (20) %
same,EC50,[6],600 nM
"CC(C)c1ccc(CN2CCN(c3cccc(S(C)(=O)=O)c3)CC2c2ccccc2)cn1 (centres unmarked) [46-42, 1-((6-isopropylpyridin-3-yl)methyl)-4-(3-(methylsulfonyl)phenyl)-2-phenylpiperazine]",Ki,[1],> 3330 nM
same,Ki,[2],> 2500 nM
same,EC50,[3]; [8],> 20000 nM
same,EC50,[4],5900 nM
same,Cell LXRβ efficacy,[4]; agonist mode,5895 (9) %
same,EC50,[5]; agonist mode,984 nM
same,FRET LXRα efficacy,[5]; agonist mode,53%
same,FRET LXRβ efficacy,[6]; agonist mode,1048 (53) %
same,EC50,[6],1050 nM
"CS(=O)(=O)c1cc(F)cc(N2CCN(Cc3ccc(C(F)(F)F)nc3)C(c3ccccc3)C2)c1 (centres unmarked) [46-53, 4-(3-fluoro-5-(methylsulfonyl)phenyl)-2-phenyl-1-((6-(trifluoromethyl)pyridin-3-yl)methyl)piperazine]",Ki,[1],> 3330 nM
same,Ki,[2],1520 nM
same,Cell LXRα efficacy,[3],11138 (23) %
same,EC50,[3]; [8],11100 nM
same,EC50,[4],3280 nM
same,Cell LXRβ efficacy,[4]; agonist mode,3280 (28) %
same,EC50,[5]; agonist mode,2590 nM
same,FRET LXRα efficacy,[5]; agonist mode,46%
same,EC50,[6],924 nM
"CS(=O)(=O)c1cccc(N2CCN(C[C@H]3CCC[C@H](C(F)(F)F)C3)[C@@H](c3ccc(F)cc3)C2)c1 [48-40, (S)-2-(4-fluorophenyl)-4-(3-(methylsulfonyl)phenyl)-1-(((1S,3S)-3-(trifluoromethyl)cyclohexyl)methyl)piperazine]",Ki,[1],2480 nM
same,EC50,[3]; [8],> 20000 nM
same,IC50,[7]; [9],> 10000 nM
"CS(=O)(=O)c1cccc(N2CCN(CC3CCCOC3)[C@@H](c3ccccc3)C2)c1 (stereo partly drawn) [51-4, (2S)-4-(3-(methylsulfonyl)phenyl)-2-phenyl-1-((tetrahydro-2H-pyran-3-yl)methyl)piperazine]",Ki,[1],> 3330 nM
same,Ki,[2],546 nM
same,EC50,[3]; read-out: Cell LXRα EC50,> 20000 nM
same,EC50,[4],> 20000 nM
same,EC50,[5]; [11],> 50000 nM
same,EC50,[6],> 50000 nM
"CS(=O)(=O)c1cccc(N2CCN(CC3CCOCC3)[C@@H](c3ccccc3)C2)c1 [51-5, (S)-4-(3-(methylsulfonyl)phenyl)-2-phenyl-1-((tetrahydro-2H-pyran-4-yl)methyl)piperazine]",Ki,[1],> 3330 nM
same,Ki,[2]; Biological Test Example 1,1020 nM
same,EC50,[3]; read-out: Cell LXRα EC50,> 20000 nM
same,EC50,[4],> 20000 nM
same,EC50,[5]; [11],> 50000 nM
same,EC50,[6],> 50000 nM
"CC(C)[C@@H]1CN(c2ccc(F)c(S(C)(=O)=O)c2)CCN1c1ncc(Cc2ccc(C(=O)O)cc2)c(C(F)(F)F)n1 [Cpd No 32-1, (R)-4-((2-(4-(4-fluoro-3-(methylsulfonyl)phenyl)-2-isopropylpiperazin-1-yl)-4-(trifluoromethyl)pyrimidin-5-yl)methyl)benzoic acid]",Ki,[1],197 nM
same,Cell LXRα efficacy,[3],4667 (6) %
same,EC50,[3]; read-out: Cell LXRα EC50,4670 nM
same,IC50,[7],544 nM
